Experimental data taken from paper PMC9270327 (Communications Biology, 2022).
Where a SMILES comes first, the peptide text is derived from it. The star is where a group is joined. AMC = Cc1cc(=O)oc2cc(N*)ccc12; Boc = CC(C)(C)OC(=O)*

Columns and labels:
[1] = biological target: TMPRSS2 (Homo sapiens, UniProt O15393); experiment: Michaelis-Menten constant of the fluorogenic reference substrate; details: read-out: Michaelis-Menten constant KM for TMPRSS2
Protocol: The measurements were performed on a Tecan infinite® M1000 and the fluorescence intensity was measured by exciting the AMC fluorophore at 380 nm wavelength and recording emission at 460 nm wavelength. […] Fluorescence intensities and absorption were measured every 2 min for 2 h or as endpoint after 2 h.
Supplementary Figure 2 Michaelis-Menten constant (KM) of the fluorogenic reference substrate
The data points were plotted using the Michaelis -Menten
equation in GraphPad Prism prism version 8.4.2 (San Diego, California). Shown are the means ± SD of
n=1 experiment performed in triplicates.

[2] = biological target: T1, recombinant human matriptase (Homo sapiens, UniProt Q9Y5Y6); experiment: Enzyme inhibition assay with purified matriptase (Ki, dose-response); type: biochemical; details: for matriptase activity, Mean (Fig. 2b): normalized, 0 nM = 100
T1 construct: purchased R&D Systems (Minneapolis, MN, USA)
T1 sequence (Q9Y5Y6 1-855): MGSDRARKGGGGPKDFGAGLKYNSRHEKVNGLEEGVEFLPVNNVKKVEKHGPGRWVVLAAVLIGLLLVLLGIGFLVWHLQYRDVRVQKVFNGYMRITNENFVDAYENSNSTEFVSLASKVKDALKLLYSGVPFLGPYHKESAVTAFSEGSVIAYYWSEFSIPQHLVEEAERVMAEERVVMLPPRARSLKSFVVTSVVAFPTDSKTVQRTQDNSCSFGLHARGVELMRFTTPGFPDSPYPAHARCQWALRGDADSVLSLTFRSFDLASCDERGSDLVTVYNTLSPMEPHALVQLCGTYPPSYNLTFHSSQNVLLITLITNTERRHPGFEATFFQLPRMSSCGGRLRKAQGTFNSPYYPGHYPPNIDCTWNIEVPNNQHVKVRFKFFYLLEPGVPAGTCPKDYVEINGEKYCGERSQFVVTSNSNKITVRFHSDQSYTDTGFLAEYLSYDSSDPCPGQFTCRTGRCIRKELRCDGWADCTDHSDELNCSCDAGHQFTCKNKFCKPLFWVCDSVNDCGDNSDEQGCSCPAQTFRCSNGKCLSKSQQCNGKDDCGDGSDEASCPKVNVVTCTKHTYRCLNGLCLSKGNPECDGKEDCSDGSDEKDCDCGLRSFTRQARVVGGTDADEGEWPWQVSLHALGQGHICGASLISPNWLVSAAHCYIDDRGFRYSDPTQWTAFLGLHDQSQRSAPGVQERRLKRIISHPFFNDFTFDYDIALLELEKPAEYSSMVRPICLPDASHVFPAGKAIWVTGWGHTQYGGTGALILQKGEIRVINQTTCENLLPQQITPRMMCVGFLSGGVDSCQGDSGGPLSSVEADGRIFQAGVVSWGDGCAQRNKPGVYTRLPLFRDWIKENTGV

[3] = biological target: T2, recombinant human thrombin (Homo sapiens, UniProt P00734); experiment: Enzyme inhibition assay with purified thrombin (Ki, dose-response); type: biochemical; details: for thrombin activity, Mean (Fig. 2c): normalized
T2 construct: purchased R&D Systems (Minneapolis, MN, USA)
From the text: (§1) Recombinant human TMPRSS2 was purchased from Creative BioMart (New York, USA) or LSBio (Seattle, USA), factor Xa was obtained from Bio-Techne GmbH (Wiesbaden, Germany). Recombinant human thrombin and matriptase protein were purchased from R&D Systems (Minneapolis, MN, USA).

[4] = biological target: T3, factor Xa (Homo sapiens, UniProt P00742); experiment: Enzyme inhibition assay with purified factor Xa (Ki, dose-response); type: biochemical; details: for factor Xa activity, Mean (Fig. 2d): normalized, 0 nM = 100
T3 construct: purchased Bio-Techne GmbH (Wiesbaden, Germany)
T3 sequence (P00742 235-488 limits assumed): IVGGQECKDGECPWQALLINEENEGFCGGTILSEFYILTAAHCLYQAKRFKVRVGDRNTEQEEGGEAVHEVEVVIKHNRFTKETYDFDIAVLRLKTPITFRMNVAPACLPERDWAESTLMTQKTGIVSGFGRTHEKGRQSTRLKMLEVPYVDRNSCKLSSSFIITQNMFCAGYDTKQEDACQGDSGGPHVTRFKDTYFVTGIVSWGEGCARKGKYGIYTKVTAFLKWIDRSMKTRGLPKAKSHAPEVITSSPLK
T3 sequence (P00742 41-179 partner limits assumed): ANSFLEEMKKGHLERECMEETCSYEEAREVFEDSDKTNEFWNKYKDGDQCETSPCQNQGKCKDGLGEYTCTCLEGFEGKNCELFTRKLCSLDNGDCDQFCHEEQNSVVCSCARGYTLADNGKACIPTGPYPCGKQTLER
From the text: as §1

[5] = iv; cited from earlier work
[6] = 30 min preincubation, substrate Boc-Gln-Ala-Arg-AMC
[7] = 30 min preincubation, substrate D-Phe-Homopro-Arg-pNA
[8] = 30 min preincubation, substrate Bz-Ile-Glu-Gly-Arg-pNA

Chain of TMPRSS2 (O15393 whole entry): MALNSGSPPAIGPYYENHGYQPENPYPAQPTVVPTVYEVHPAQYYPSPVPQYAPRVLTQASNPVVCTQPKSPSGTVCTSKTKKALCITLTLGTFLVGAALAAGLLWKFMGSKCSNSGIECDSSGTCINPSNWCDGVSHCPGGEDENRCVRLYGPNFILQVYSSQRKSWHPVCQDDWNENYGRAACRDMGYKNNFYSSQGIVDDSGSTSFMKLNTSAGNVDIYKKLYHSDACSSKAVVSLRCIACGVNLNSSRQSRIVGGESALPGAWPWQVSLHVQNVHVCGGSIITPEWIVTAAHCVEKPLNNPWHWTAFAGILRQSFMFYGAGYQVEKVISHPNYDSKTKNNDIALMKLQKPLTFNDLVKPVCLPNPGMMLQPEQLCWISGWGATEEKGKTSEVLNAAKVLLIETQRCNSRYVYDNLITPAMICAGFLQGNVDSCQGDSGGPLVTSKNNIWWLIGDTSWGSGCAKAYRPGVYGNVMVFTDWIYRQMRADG

Cc1cc(=O)oc2cc(NC(=O)[C@H](CCCN=C(N)N)NC(=O)[C@H](C)NC(=O)[C@H](CCC(N)=O)NC(=O)OC(C)(C)C)ccc12 [Boc-Gln-Ala-Arg-AMC] (Boc-Gln-Ala-Arg-{AMC})
Km [1]: 77 µM

CC(=O)N[C@H](CCCNC(=N)N)C(=O)N[C@@H](CC1CCC1)C(=O)N[C@H](CO)CCCNC(=N)N [Cpd. 7 alcohol]
Ki Matriptase [2, 6]: n.i. | matriptase activity, Mean (control = 100), S6a ([2]; inhibitor 10 nM): 90.4903 | matriptase activity, Mean (control = 100), S6a ([2]; inhibitor 100 nM): 101.634 | matriptase activity, Mean (control = 100), S6a ([2]; inhibitor 1000 nM): 101.337 | matriptase activity, Mean (control = 100), S6a ([2]; inhibitor 50000 nM): 91.3819 | matriptase activity, Mean (control = 100), S6a ([2]; inhibitor 500000 nM): 44.4279 | Ki Thrombin [3, 7]: n.i. | thrombin activity, Mean (control = 100), S6b ([3]; inhibitor 0.2 nM): 90.7019 | thrombin activity, Mean (control = 100), S6b ([3]; inhibitor 2 nM): 92.977 | thrombin activity, Mean (control = 100), S6b ([3]; inhibitor 20 nM): 91.1965 | thrombin activity, Mean (control = 100), S6b ([3]; inhibitor 200 nM): 95.4993 | thrombin activity, Mean (control = 100), S6b ([3]; inhibitor 10000 nM): 93.8672 | thrombin activity, Mean (control = 100), S6b ([3]; inhibitor 100000 nM): 91.2954 | Ki Factor Xa [4, 8]: n.i. | factor Xa activity, Mean (control = 100), S6c ([4]; inhibitor 0.2 nM): 93.6065 | factor Xa activity, Mean (control = 100), S6c ([4]; inhibitor 2 nM): 101.454 | factor Xa activity, Mean (control = 100), S6c ([4]; inhibitor 20 nM): 95.9299 | factor Xa activity, Mean (control = 100), S6c ([4]; inhibitor 200 nM): 88.9574 | factor Xa activity, Mean (control = 100), S6c ([4]; inhibitor 10000 nM): 78.1999 | factor Xa activity, Mean (control = 100), S6c ([4]; inhibitor 100000 nM): 120.06

CC(=O)NC(CCCNC(=N)N)C(=O)NC(CC1CCC1)C(=O)NC(CCCNC(=N)N)C(=O)c1nccs1 (stereo not shown) [Cpd. 7 ketothiazole]
Ki [2, 6]: 141 nM | matriptase activity, Mean (control = 100), S6a ([2]; inhibitor 0.1 nM): 103.606 | matriptase activity, Mean (control = 100), S6a ([2]; inhibitor 0.2 nM): 101.185 | matriptase activity, Mean (control = 100), S6a ([2]; inhibitor 1 nM): 109.016 | matriptase activity, Mean (control = 100), S6a ([2]; inhibitor 10 nM): 101.829 | matriptase activity, Mean (control = 100), S6a ([2]; inhibitor 100 nM): 75.1932 | matriptase activity, Mean (control = 100), S6a ([2]; inhibitor 1000 nM): 21.355 | matriptase activity, Mean (control = 100), S6a ([2]; inhibitor 50000 nM): 0.4637 | matriptase activity, Mean (control = 100), S6a ([2]; inhibitor 500000 nM): -0.1803 | Ki Thrombin [3, 7]: n.i. | thrombin activity, Mean (control = 100), S6b ([3]; inhibitor 0.02 nM): 96.7111 | thrombin activity, Mean (control = 100), S6b ([3]; inhibitor 0.04 nM): 101.49 | thrombin activity, Mean (control = 100), S6b ([3]; inhibitor 0.2 nM): 101.233 | thrombin activity, Mean (control = 100), S6b ([3]; inhibitor 2 nM): 107.554 | thrombin activity, Mean (control = 100), S6b ([3]; inhibitor 20 nM): 101.388 | thrombin activity, Mean (control = 100), S6b ([3]; inhibitor 200 nM): 101.233 | thrombin activity, Mean (control = 100), S6b ([3]; inhibitor 10000 nM): 98.2014 | thrombin activity, Mean (control = 100), S6b ([3]; inhibitor 100000 nM): 83.6589 | Ki [4, 8]: 98.7 nM | factor Xa activity, Mean (control = 100), S6c ([4]; inhibitor 0.02 nM): 95.3485 | factor Xa activity, Mean (control = 100), S6c ([4]; inhibitor 0.04 nM): 90.4387 | factor Xa activity, Mean (control = 100), S6c ([4]; inhibitor 0.2 nM): 87.8566 | factor Xa activity, Mean (control = 100), S6c ([4]; inhibitor 2 nM): 87.8545 | factor Xa activity, Mean (control = 100), S6c ([4]; inhibitor 20 nM): 82.4299 | factor Xa activity, Mean (control = 100), S6c ([4]; inhibitor 200 nM): 52.1976 | factor Xa activity, Mean (control = 100), S6c ([4]; inhibitor 10000 nM): 2.584 | factor Xa activity, Mean (control = 100), S6c ([4]; inhibitor 100000 nM): 3.101

NC(N)=Nc1ccc(C(=O)Oc2ccc(CC(=O)O)cc2)cc1 [FOY-251, reference compound]
matriptase activity, Mean (Fig. 2b) ([2]; 0.05 nM): 110.25 | matriptase activity, Mean (Fig. 2b) ([2]; 0.5 nM): 111.62 | matriptase activity, Mean (Fig. 2b) ([2]; 5 nM): 106.849 | matriptase activity, Mean (Fig. 2b) ([2]; 50 nM): 97.213 | matriptase activity, Mean (Fig. 2b) ([2]; 500 nM): 35.5692 | matriptase activity, Mean (Fig. 2b) ([2]; 5000 nM): 1.606 | matriptase activity, Mean (Fig. 2b) ([2]; 50000 nM): 0.2362 | matriptase activity, Mean (Fig. 2b) ([2]; 500000 nM): 0.1417 | Ki [2, 6]: 173 nM | thrombin activity, Mean (Fig. 2c) ([3]; 0.01 nM): 101.844 | thrombin activity, Mean (Fig. 2c) ([3]; 0.02 nM, 0 nM = 100): 101.898 | thrombin activity, Mean (Fig. 2c) ([3]; 0.04 nM, 0 nM = 100): 101.898 | thrombin activity, Mean (Fig. 2c) ([3]; 0.2 nM, 0 nM = 100): 101.356 | thrombin activity, Mean (Fig. 2c) ([3]; 2 nM, 0 nM = 100): 99.0781 | thrombin activity, Mean (Fig. 2c) ([3]; 20 nM, 0 nM = 100): 102.277 | thrombin activity, Mean (Fig. 2c) ([3]; 10000 nM, 0 nM = 100): 93.0588 | thrombin activity, Mean (Fig. 2c) ([3]; 100000 nM, 0 nM = 100): 44.1974 | Ki [3, 7]: > 50000 nM | factor Xa activity, Mean (Fig. 2d) ([4]; 0.02 nM): 91.2533 | factor Xa activity, Mean (Fig. 2d) ([4]; 0.04 nM): 91.3991 | factor Xa activity, Mean (Fig. 2d) ([4]; 0.2 nM): 72.8853 | factor Xa activity, Mean (Fig. 2d) ([4]; 2 nM): 86.5885 | factor Xa activity, Mean (Fig. 2d) ([4]; 20 nM): 82.2151 | factor Xa activity, Mean (Fig. 2d) ([4]; 200 nM): 72.5938 | factor Xa activity, Mean (Fig. 2d) ([4]; 10000 nM): 34.986 | factor Xa activity, Mean (Fig. 2d) ([4]; 100000 nM): 16.3265 | Ki [4, 8]: 697 nM | in vivo half-life [5]: 1 to 1.67 h
